Consider 1 compound from publication PMC4222822, “Discovery and Characterization of a Potent and Selective Inhibitor of Aedes aegypti Inward Rectifier Potassium Channels” (PLoS ONE, 2014).

The target of assay [1] is T1, Kir3.1/3.2 (Homo sapiens, UniProt P48051+P48549).
T1 construct: expressed in transfected cells
T1 sequence (P48549 1-501): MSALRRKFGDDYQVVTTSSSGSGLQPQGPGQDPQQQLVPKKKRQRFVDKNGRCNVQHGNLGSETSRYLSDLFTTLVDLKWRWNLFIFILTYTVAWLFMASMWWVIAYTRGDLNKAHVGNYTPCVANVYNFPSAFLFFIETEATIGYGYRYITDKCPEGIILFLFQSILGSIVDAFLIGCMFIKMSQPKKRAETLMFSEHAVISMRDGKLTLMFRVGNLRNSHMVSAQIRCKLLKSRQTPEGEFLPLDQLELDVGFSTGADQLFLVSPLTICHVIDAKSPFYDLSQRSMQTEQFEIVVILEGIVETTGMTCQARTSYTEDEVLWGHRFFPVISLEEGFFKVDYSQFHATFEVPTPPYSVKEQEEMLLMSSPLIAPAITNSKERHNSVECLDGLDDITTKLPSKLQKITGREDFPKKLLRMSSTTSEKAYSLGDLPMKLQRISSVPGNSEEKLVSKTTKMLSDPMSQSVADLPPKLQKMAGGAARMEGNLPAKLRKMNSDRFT
T1 sequence (P48051 1-423): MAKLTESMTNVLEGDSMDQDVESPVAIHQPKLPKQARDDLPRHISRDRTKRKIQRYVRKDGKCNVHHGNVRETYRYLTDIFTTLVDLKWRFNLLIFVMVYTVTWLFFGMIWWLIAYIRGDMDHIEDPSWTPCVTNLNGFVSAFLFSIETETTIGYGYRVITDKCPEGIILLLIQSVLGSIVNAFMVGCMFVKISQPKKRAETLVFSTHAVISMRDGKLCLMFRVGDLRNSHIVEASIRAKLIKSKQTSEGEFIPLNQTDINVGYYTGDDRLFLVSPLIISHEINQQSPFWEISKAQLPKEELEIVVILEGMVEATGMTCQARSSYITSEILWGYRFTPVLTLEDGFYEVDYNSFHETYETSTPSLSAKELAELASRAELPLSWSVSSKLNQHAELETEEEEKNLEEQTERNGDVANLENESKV
Put plainly: Tl+ flux selectivity assay, Kir3.1/3.2. The conditions noted are these: Kir3.1/3.2 (with mGlu8, EC80 glutamate); n = 2 independent experiments in triplicate; read-out: Inhibition of Tl+ flux (IC50). Type of assay: cell-based. The protocol:
[Worded in the source for another target; used here, by the source, with some conditions changed.] Tl^+ flux assays were performed essentially as described previously, [18], [19]. Briefly, stably transfected T-Rex-HEK-293 cells expressing AeKir1 channels were cultured overnight in 384-well plates (20,000 cells/20 µL/well black-walled, clear-bottomed BD PureCoat amine-coated plates (BD, Bedford, MA) with a plating media containing DMEM, 10% dialyzed FBS and 1 µg/mL tetracycline. The next day, the cell culture medium was replaced with a dye-loading solution containing assay buffer (Hanks Balanced Salt Solution with 20 mM HEPES, pH 7.3), 0.01% (w/v) Pluronic F-127 (Life Technologies, Carlsbad, CA), and 1.2 µM of the thallium-sensitive dye Thallos-AM (TEFlabs, Austin, TX). Following 1 hr incubation at room temperature, the dye-loading solution was washed from the plates and replaced with 20 µL/well of assay buffer. […] Tl^+ flux data were analyzed as previously described, [21], [22] using a combination of Excel (Microsoft Corp, Redmond, WA) with XLfit add-in (IDBS, Guildford, Surrey, UK) and OriginPro (OriginLab, Northampton, MA) software. […] The slope of the fluorescence increase beginning 5 s after Tl^+ addition and ending 15 s after Tl^+ addition was calculated.

For assay [2], the target named is T2, Kir7.1(M125R) (Homo sapiens, UniProt O60928, M125R).
T2 construct: expressed in transfected cells
T2 sequence (O60928 1-360 M125R): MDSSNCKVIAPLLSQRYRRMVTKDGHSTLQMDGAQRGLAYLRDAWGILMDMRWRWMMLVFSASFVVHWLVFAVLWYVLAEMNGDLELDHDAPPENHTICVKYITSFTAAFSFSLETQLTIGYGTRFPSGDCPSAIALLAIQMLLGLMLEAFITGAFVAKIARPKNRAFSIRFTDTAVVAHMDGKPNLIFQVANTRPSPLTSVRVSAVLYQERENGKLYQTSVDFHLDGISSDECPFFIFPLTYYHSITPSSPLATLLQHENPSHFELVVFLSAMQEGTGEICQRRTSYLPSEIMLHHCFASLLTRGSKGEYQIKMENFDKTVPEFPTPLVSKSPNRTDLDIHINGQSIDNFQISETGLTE
Put plainly: Tl+ flux selectivity assay, Kir7.1(M125R). In kind it is cell-based. The conditions noted are these: n = 2 independent experiments in triplicate, read-out: Inhibition of Tl+ flux (IC50).

pIC50: −log10 of the molar value.

The pIC50 is the IC50 on a negative log10 scale, so that one unit is a factor of ten. As for `CCC(=O)N1c2ccc(S(=O)(=O)Nc3cccc(OC)c3)cc2CC1C` (centres unmarked) [VU625, N-(3-methoxyphenyl)-2-methyl-1-propionylindoline-5-sulfonamide], the pIC50 in assay [1] is 5.07; in assay [2] it was under 4.52.
